{"source": "patent US10874631B2", "about": "“Altertoxin II as a selective inhibitor of Ewing family of tumor cells” (priority 2016, dated 2020)", "assay_type_in_all_cases": "cell-based", "key": {"Rh30 cells": {"test_system": "Rh30 cells", "experiment": "Conditioned media effect on cell growth, SRB assay", "conditions": "media from TC-32 cells treated with 100 nM for 6 h, vs media from Rh30 cells", "description": "FIG. 10. Effects of ATXII-conditioned media on Rh30 cell growth. TC-32 or Rh30 cells were treated with 100 nM ATXII for 6 h, the media added to Rh30 cells and cell growth determined with the SRB assay.\nAn experiment was conducted to test this possibility. TC-32 Ewing sarcoma and Rh30 rhabdomyosarcoma cells were treated with 100 nM ATX for 6 h and the conditioned media was then applied to the resistant Rh30 cells. […] Differences in the altertoxin II concentration were measured by LC/MS in media from TC-32 and HepG2 hepatocellular carcinoma cells."}, "A673 Ewing sarcoma cells [1]": {"test_system": "A673 Ewing sarcoma cells", "experiment": "γH2AX immunofluorescence / high-content imaging", "description": "(§1) FIG. 7A-7B. Altertoxin II (ATXII) selectively induces γH2AX foci in A673 Ewing sarcoma cells. (A) A673 cells were treated for 24 h with 100 nM altertoxin II and serine 139 phosphorylation of γH2AX evaluated by indirect immunofluorescence techniques. (B) High-content imaging and image analysis were used to construct concentration-response curves for nuclear γH2AX intensity in A673 and Rh30 rhabdomyosarcoma cells after treatment with altertoxin II for 6 h.\n(§2) Studies were conducted to test whether altertoxin II initiates DNA damage in Ewing sarcoma cells because of the well-known sensitivity of these cells to DNA damage and prior reports of altertoxin II-induced DNA damage in other mammalian cells (Fleck, S. C. et al., Toxicol Lett, 214, 27-32, 2012). […] Consistent with these measures of DNA damage altertoxin II."}, "Ewing sarcoma cell lines": {"test_system": "Ewing sarcoma cell lines", "experiment": "alamar blue panel, selectivity Ewing sarcoma vs rhabdomyosarcoma cell lines", "conditions": "alamar blue assay, mean IC50; 6 Ewing sarcoma vs 6 rhabdomyosarcoma cell lines", "description": "FIG. 3A-3B. (A) The effects of altertoxin II were evaluated using the SRB assay in 6 Ewing sarcoma cell lines as compared to 4 other pediatric solid tumor cells lines. n≥3 independent experiments. […]\nThe effects of altertoxin II were studied in a larger panel of cell lines and the GI50, the concentration that causes 50% inhibition of cell growth, and the TGI, the concentration that caused total growth inhibition, were determined using the sulforhodamine b (SRB assay). The mean GI50 values shown graphically in FIG. 3A. The IC50, the concentration that causes 50% inhibition of cell proliferation, values were determined in a second panel of Ewing sarcoma and rhabdomyosarcoma cell lines using the altar blue assay and these values are presented in Table 2 and the mean in […]."}, "A673 Ewing sarcoma cells [2]": {"test_system": "A673 Ewing sarcoma cells", "experiment": "DNA damage response immunoblot (Chk1, Chk2)", "conditions": "10-300 nM, within 6 h", "description": "(§3) FIG. 9A-9B. Altertoxin II causes phosphorylation of CHK1 and 2 and p53 in Ewing sarcoma cells. Ewing sarcoma cells, A673, RD-ES, SK-ES-1, or rhabdomyosarcoma A204 cells were treated with altertoxin II at the concentrations indicated for 6 h (A) or 24 h (B) and whole-cell lysates prepared and proteins separated by SDS-PAGE. These samples were analyzed by immunoblotting for total and phosphorylated Chk1 and 2 and p53 (A).\n(§4) Downstream activation of DNA damage response proteins by altertoxin II was subsequently evaluated."}, "[3]": {"test_system": "SK-ES-1 Ewing sarcoma cells", "experiment": "DNA damage response immunoblot (Chk1)", "conditions": "100 nM and 1 μM, 24 h", "description": "as §3, §4"}, "[4]": {"test_system": "A204 rhabdomyosarcoma cells", "experiment": "DNA damage response immunoblot (Chk1)", "conditions": "concentrations up to 1 μM", "description": "as §3, §4"}, "RD-ES cells [5]": {"test_system": "RD-ES cells", "experiment": "G1 arrest with CDK4/6 inhibitor and SRB concentration-response", "conditions": "RD-ES pre-treated with LSN2813542 (100 nM); SRB assay", "description": "FIG. 6. Concentration-response curves for altertoxin II (ATX) with and without pre-treatment with the CDK4/6 inhibitor LSN2813542 (100 nM) using the SRB assay, n=3.\nAn experiment was designed to evaluate whether the effects of altertoxin II in Ewing sarcoma cells required cell cycle transition. RD-ES cells were arrested in the G1 phase of the cell cycle using the CDK4/6 inhibitor LSN2813542. LSN2813542 (100 nM) had no effect on RD-ES cell viability, but caused greater than 85% of the cells to arrest in G1 for at least 48 h. The arrested cells were then treated with altertoxin II and a concentration-response curve generated."}, "Ewing sarcoma cells": {"test_system": "Ewing sarcoma cells", "experiment": "Panel of 5 pediatric cancer cell lines, selective cytotoxicity", "conditions": "5 types of solid pediatric cancers"}, "[6]": {"test_system": "Rh30 rhabdomyosarcoma cells", "experiment": "γH2AX high-content imaging", "description": "as §1, §2"}, "RD-ES cells [7]": {"test_system": "RD-ES cells", "experiment": "PARP cleavage immunoblot (apoptosis)", "conditions": "100 nM", "description": "(§5) FIG. 4A-4B. Altertoxin II selectively induces PARP cleavage in EWS cell lines. Immunoblotting for total and cleaved PARP. (A) Two Ewing sarcoma (EWS) cell lines, RD-ES and SK-ES-1, were treated with 100 nM altertoxin II (ATX) for the indicated amounts of time. Whole-cell lysates were prepared and separated by SDS-PAGE. (B) The EWS cell line SK-ES-1 and rhabdomysosarcoma cell line A204 were treated with the indicated concentrations of ATX for 18 hours, lysed and separated by SDS-PAGE.\n(§6) The ability of altertoxin II to initiate cell death via apoptosis, as measured by PARP cleavage, was evaluated in two Ewing sarcoma cells lines, SK-ES-1 and RD-ES. […] A range of altertoxin II concentrations when then evaluated in SK-ES-1 Ewing sarcoma cells as compared to A204 rhabdomyosarcoma cells."}, "SK-ES-1 cells": {"test_system": "SK-ES-1 cells", "experiment": "PARP cleavage immunoblot (apoptosis)", "description": "as §5, §6"}, "[8]": {"test_system": "A204 rhabdomyosarcoma cells", "experiment": "PARP cleavage immunoblot (apoptosis)", "conditions": "100 nM and 1 μM, 18 hours", "description": "as §5, §6"}, "[9]": {"test_system": "RD-ES Ewing sarcoma cells", "experiment": "DNA damage response immunoblot (Chk1, Chk2, p53)", "description": "as §3, §4"}}}
{"smiles": "O=C1CC[C@]2(O)c3c(ccc(O)c31)-c1ccc(O)c3c1[C@H]2[C@H]1O[C@H]1C3=O", "note": "[altertoxin II]", "values": [{"measurement": "activity of conditioned media against Rh30 cells", "setting": "Rh30 cells", "value": "substantially higher activity"}, {"measurement": "nuclear γH2AX, high-content imaging", "setting": "A673 Ewing sarcoma cells [1]; 30 nM, 6 h", "value": "caused an increase in γH2AX"}, {"measurement": "H2AX serine 139 phosphorylation (γH2AX)", "setting": "A673 Ewing sarcoma cells [1]; 100 nM, within 6 h", "value": "rapidly induced H2AX serine 139 phosphorylation"}, {"measurement": "selectivity of Ewing sarcoma cell lines vs rhabdomyosarcoma cell lines", "setting": "Ewing sarcoma cell lines", "value": 89, "unit": "fold"}, {"measurement": "phosphorylation of Chk1 and Chk2", "setting": "A673 Ewing sarcoma cells [2]", "value": "caused phosphorylation of checkpoint kinase 1 and 2"}, {"measurement": "Chk1 phosphorylation", "setting": "[3]", "value": "Chk1 phosphorylation was also observed"}, {"measurement": "Chk1 phosphorylation", "setting": "[4]", "value": "Chk1 phosphorylation was not observed"}, {"measurement": "increase in total growth inhibition concentration (TGI) after G1 arrest", "setting": "RD-ES cells [5]", "value": 28, "unit": "fold"}, {"measurement": "selective cytotoxic activity against Ewing sarcoma cells", "setting": "Ewing sarcoma cells", "value": "potent, Ewing sarcoma-specific effects"}, {"measurement": "γH2AX foci", "setting": "[6]; 10 μM, 24 h exposure", "value": "did initiate γH2AX foci"}, {"measurement": "γH2AX foci", "setting": "[6]; concentrations up to 1 μM, 6 or 24 h", "value": "no γH2AX foci were detected"}, {"measurement": "time to appearance of cleaved PARP", "setting": "RD-ES cells [7]", "value": "≤ 17", "unit": "h"}, {"measurement": "apoptosis (PARP cleavage)", "setting": "SK-ES-1 cells; 100 nM and 1 μM, 18 hours", "value": "cause apoptosis"}, {"measurement": "time to appearance of cleaved PARP", "setting": "SK-ES-1 cells; 100 nM, seen at 7 and 17 hours", "value": "≤ 7", "unit": "h"}, {"measurement": "apoptosis (PARP cleavage)", "setting": "[8]", "value": "not the rhabdomyosarcoma cells"}, {"measurement": "phosphorylation of p53", "setting": "[9]", "value": "also observed in RD-ES cells"}, {"measurement": "phosphorylation of Chk1 and Chk2", "setting": "[9]; 10-300 nM, within 6 h", "value": "caused phosphorylation of checkpoint kinase 1 and 2"}]}
